Legend:
[1] = system: A549 (human lung carcinoma); assay: MTT cytotoxicity assay, A549; type: cell-based; conditions: 48 h, MTT
[2] = system: HeLa (human cervical cancer); assay: MTT cytotoxicity assay, HeLa; type: cell-based; conditions: 48 h
MCF-7 (breast cancer) = assay: MTT cytotoxicity assay, MCF-7; type: cell-based, human; conditions: 48 h
[3] = system: HepG2 (human hepatocellular carcinoma); assay: MTT cytotoxicity assay, HepG2; type: cell-based; conditions: 48 h
[4] = system: BEAS-2B (immortalized human bronchial epithelial cells); assay: MTT cytotoxicity assay, normal BEAS-2B; type: cell-based; conditions: 48 h
A549 cells [5] = assay: Cellular uptake and subcellular distribution by ICP-MS; type: cell-based, human
Procedure: A549 cells were seeded into six-well plates (5.0 × 10^5 cells per well) and grown overnight at 37°C in a 5% CO2 incubator. The cells were incubated with the different concentrations (5, 10, 15, and 20 μM) of Ru(II) complexes for different time intervals (1, 3, and 6 h). After the incubation, the cells were harvested and washed twice with PBS. Cell Mitochondria Isolation Kit was used to extract the nuclear, mitochondrial, and cytoplasmic fractions of the A549 cells. The pellets were digested with 3 mL concentrated nitric acid and 1 mL perhydrol for 24 h and then diluted to 5 mL with ultrapure water. Finally, ICP-MS was used to determine the amount of Ru(II) complexes uptaken by A549 cells.
It is generally acknowledged that the cellular uptake feature of transition metal-based compounds is an essential factor for their biological activities. As repeatedly reported by previous ruthenium complex-related studies, the more cellular uptake results in higher cytotoxicity. The cellular ruthenium concentration was determined by using ICP-MS after 1, 3, and 6 h of exposure to 5, 10, 15, and 20 μM Ru(II) complexes (Figure 2), respectively, and the results were reported as ng of ruthenium per 10^6 cell number.

A549 cells [6] = assay: Annexin V-FITC/PI apoptosis flow cytometry; type: cell-based, human; conditions: 24 h
Procedure: (§1) First, A549 cells were incubated in six-well plates for 12 h and then exposed to Ru(II) complexes for 24 h. After incubation, cell nuclei were stained with Hoechst 33342 (5 μg/mL) for 10 min, washed twice with PBS, and then photographed using an inverted fluorescence microscope. […] The suspension was stained with 5 μL Annexin V-FITC and 10 μL PI at room temperature for 15 min and then analyzed using the flow cytometer.

A549 cells [7] = assay: Intracellular ROS level, DCFH-DA flow cytometry; type: cell-based, human; conditions: 20 μM, 12 h
Procedure: The mitochondrial membrane potential (MMP) of A549 cells was analyzed by using an inverted fluorescence microscope and flow cytometry. […] For microscope observation, the collected cells were incubated in complete medium containing JC-1 (10 μg/mL) for 30 min and washed with PBS twice and then imaged by an inverted fluorescence microscope (Nikon, Japan). For flow cytometry analysis, the cells were trypsinized and washed twice with PBS and then incubated in 500 μL PBS containing JC-1 (10 μg/mL) for 30 min at 37°C. The cells were analyzed by flow cytometer immediately. The intracellular ROS level of A549 cells was detected after DCFH-DA stain, as illustrated in our new publication.
Increasing intracellular ROS levels can trigger cell apoptosis. […] To explore the roles of ROS in Ru(II) complex-induced cell apoptosis, we detected intracellular ROS levels by using an inverted fluorescence microscope and flow cytometry after staining A549 cells with DCFH-DA fluorescent dye.

[8] = Solution stability by UV-Vis absorption in water and CH3CN; type: physicochemical; conditions: 298 K, over 24 h, 20 μM
Procedure: (N-N = dip, dmp) and salicylic acid in the presence of sodium hydroxide. The crude product was purified by chromatography over alumina. The obtained compounds were analyzed by elemental analysis, ESI-MS, ^1H NMR, FTIR, and UV-Vis absorption spectroscopy, and the results were shown in Figures S1–S7 in Supplementary Materials. […] In the UV-visible spectral regions, both complexes consist of two well-resolved absorption bands. In the visible region, these two complexes present a strong MLCT transition at 500–600 nm attributed to the overlap Ru(dπ)-dip or dmp (π^∗) and Ru(dπ)-SA (π^∗). The intense band occurring between 250 nm and 300 nm is attributed to an intra-ligand (IL) π-π^∗ transition by comparing with the spectra of other Ru(II)-polypyridyl complexes.

[9] = Stability towards GSH and BSA by UV-Vis absorption; type: physicochemical; conditions: 12 h, 37 °C, PBS buffer (pH 7.4)
Procedure: Investigating the hydrolysis in the presence of biorelevant molecules is very important to assess the chemical stability and biological activities of these title complexes.
Figure S8. UV/vis absorption of Ru-1 in the absence and presence of (A) GSH or (B) BSA. All spectra were acquired 12 h after GSH or BSA addition at 37 °C in PBS buffer (pH 7.4).
Figure S9. UV/vis absorption of Ru-2 in the absence and presence of (A) GSH or (B) BSA. All spectra were acquired 12 h after GSH or BSA addition at 37 °C in PBS buffer (pH 7.4).

A549 cells [10] = assay: Hoechst 33342 nuclear staining; type: cell-based, human; conditions: 20 μΜ, 24 h
Procedure: as §1

A549 cells [11] = assay: Comet assay (single-cell gel electrophoresis), DNA damage; type: cell-based, human; conditions: 10 μM, 12 h
Procedure: Single-cell gel electrophoresis was performed to detect DNA damage, as previously described. Comet assay was performed according to the manufacturer's instructions. DNA was stained with SYBR Green I (Trevigen) and imaged under an inverted fluorescence microscope.
Excessive intracellular ROS can activate DNA damaged sensor proteins and lead to DNA damage, an essential hallmark of cell apoptosis. Indeed, the DNA damage effect has been observed in many previously developed Ru(II) complexes. To determine whether or not these complexes can induce DNA damage, the single-cell gel electrophoresis assay (comet assay) was conducted in our study. […] Also, the comet assay (DNA fragments appearance) could serve as a mark for apoptosis assessment. As shown in Figure 6(a), in the control group, there was no comet-like cell observed. […] Increasing the concentration to 20 μM recorded markedly higher levels of comet tails, showing that more DNA fragmentation has occurred.

A549 cells [12] = assay: Western blotting of apoptosis, Bcl-2 family and DNA damage proteins; type: cell-based, human
Procedure: Glyceraldehyde-3-phosphate dehydrogenase (GAPDH) was used as an internal control. The protein concentrations were determined by BCA Protein Assay Kit.

zebrafish embryos = assay: In vivo toxicity on developing zebrafish embryos
E. histolytica = system: E. histolytica; design: method as in PMID 17154516; conditions: read-out: IC50 anti-E. histolytica activity in vitro; cited from earlier work

For O=C1[O][Ru][O]c2ccccc21.c1ccc(-c2ccnc3c2ccc2c(-c4ccccc4)ccnc23)cc1.c1ccc(-c2ccnc3c2ccc2c(-c4ccccc4)ccnc23)cc1 [Ru-1, [Ru(dip)2(SA)]], the IC50 [1] was 11.3 ± 1.1 µM, the IC50 [2] was 20.1 ± 1.3 µM and the IC50 (MCF-7 (breast cancer)) was 29.5 ± 2.2 µM. For the same compound, the IC50 [3] was 15.4 ± 1 µM, the IC50 [4] was 54.3 ± 3.4 µM and the “Intracellular content of Ru” value (A549 cells [5]; 5 μM, 1 h) was 120.3 ± 9.5 ng Ru/10^6 A549 cell number. For the same compound, the “Intracellular content of Ru” value (A549 cells [5]; 5 μM, 3 h) was 168.5±13.0 ng Ru/10^6 A549 cell number, the “Intracellular content of Ru” value (A549 cells [5]; 5 μM, 6 h) was 241.2±10.6 ng Ru/10^6 A549 cell number and the “Intracellular content of Ru” value (A549 cells [5]; 10 μM, 1 h) was 146.3±13.7 ng Ru/10^6 A549 cell number. For the same compound, the “Intracellular content of Ru” value (A549 cells [5]; 10 μM, 3 h) was 216.8±16.9 ng Ru/10^6 A549 cell number, the “Intracellular content of Ru” value (A549 cells [5]; 10 μM, 6 h) was 299.4±1.2 ng Ru/10^6 A549 cell number and the “Intracellular content of Ru” value (A549 cells [5]; 15 μM, 1 h) was 178.5±15.4 ng Ru/10^6 A549 cell number. The “Intracellular content of Ru” value (A549 cells [5]; 15 μM, 3 h) was 246.7±25.4 ng Ru/10^6 A549 cell number, the “Intracellular content of Ru” value (A549 cells [5]; 15 μM, 6 h) was 343.8±17.0 ng Ru/10^6 A549 cell number and the “Intracellular content of Ru” value (A549 cells [5]; 20 μM, 1 h) was 215.9±19.4 ng Ru/10^6 A549 cell number. For the same compound, the “Intracellular content of Ru” value (A549 cells [5]; 20 μM, 3 h) was 312.4±21.5 ng Ru/10^6 A549 cell number, the “Intracellular content of Ru” value (A549 cells [5]; 20 μM, 6 h) was 432.5 ± 12.4 ng Ru/10^6 A549 cell number and the Subcellular distribution (A549 cells [5]; 20 μM, nuclear, mitochondrial and cytoplasmic fractions) was “mostly accumulated in the cell nucleus, followed by mitochondria”. For the same compound, the “early apoptotic cells (I4)” value (A549 cells [6]; 5 μM) was 14.71%, the “late apoptotic/necrotic cells (I2)” value (A549 cells [6]; 5 μM) was 7.13% and the “early apoptotic cells (I4)” value (A549 cells [6]; 10 μM) was 16.27%. For the same compound, the “early apoptotic cells (I4)” value (A549 cells [6]; 20 μM) was 21.57%, the “late apoptotic/necrotic cells (I2)” value (A549 cells [6]; 20 μM) was 20.78% and the “MFI higher than the control group” value (A549 cells [7]) was “about 3.0 fold”. The “change in UV-Vis absorption spectra (solution stability)” value [8] was “no significant change”, the “change in characteristic absorption with excessive GSH or BSA (stability)” value [9] was “no significant change” and the “apoptotic features, Hoechst 33342 staining” value (A549 cells [10]) was “chromatin condensation, nuclear fragmentation, and plasma membrane blebbing”. The “DNA fragmentation, comet assay” value (A549 cells [11]) was “well-formed comet tails”, the “cytochrome c expression in cytosol” value (A549 cells [12]) was “apparent enhancement” and the “expression levels of antiapoptotic proteins Bcl-2 and Bcl-xl” value (A549 cells [12]) was “downregulated”. For the same compound, the “expression of proapoptotic protein Bax and Bad” value (A549 cells [12]) was “increased expression”, the “phosphorylation levels of Chk1 and Chk2” value (A549 cells [12]) was “increased” and the “expression of cleaved-PARP, cleaved caspase-3/8/9” value (A549 cells [12]; 24 h, concentration-dependent) was “increased”. For the same compound, the “expression of total caspase-3/8” value (A549 cells [12]; 24 h, concentration-dependent) was “decreased”, the “phosphorylation levels of ATM, ATR, histone, and p53” value (A549 cells [12]; concentration-dependent) was “upregulation” and the “cumulative hatch rate and lethality rate” value (zebrafish embryos; 12.5 μM) was “no difference compared with those of the control group”. The lethality rate (zebrafish embryos; 100 μM, after 96 h) was “lower than 35%”, the cumulative hatch (zebrafish embryos; 200 μM, after 72 h treatment) was “lower than 70%” and the unhealthy features observed (zebrafish embryos; 200 μM, at 96 h) was “pericardial cysts and spine curvature”. For the same compound, the side effects (zebrafish embryos; 12.5 to 50 μM) was “no apparent side effects”, the development of embryos (zebrafish embryos; concentration lower than 50 μM, after 96 h) was “all zebrafish embryos can develop into juvenile zebrafish” and the malformation (zebrafish embryos; concentration lower than 100 μM, at 96 h) was “no malformation was observed”.
For CC(=O)C=C(C)[O-].[Cl-].[Ru+2].c1ccc(CCSCCSCCc2ccccn2)nc1 [[Ru(acac)(pdto)]Cl], the IC50 (E. histolytica) is given as 0.06 µM.

Source: PMC7448123, “Ru(II) Complexes Bearing O, O-Chelated Ligands Induced Apoptosis in A549 Cells through the Mitochondrial Apoptotic Pathway” (Bioinorganic Chemistry and Applications, 2020)
